“And” between values parts separate entries of the source, which are not always exact repeats. Equal entries are not always repeated.
Tests used:
human CB2 receptor = target: T1, human CB2 receptor (Homo sapiens, UniProt P34972); assay: PathHunter β-arrestin assay, CB2 assay; type: cell-based
T1 construct: CB2 was cloned into the pCMV-PK vector; 93-0164 (CHO-K1 EA-Arrestin parental cell line)

[1] = system: rats following ligation of spinal nerves; details: cited from earlier work
[2] = system: STZ-induced PDPN model, diabetic and allodynic rats; assay: Streptozotocin-induced painful diabetic peripheral neuropathy (PDPN) model; type: in vivo, rat; details: 10 mg/kg orally in 0.5% methylcellulose; 1, 4 and 6 hours post-dosing; FIG. 13, 14
Method: Male Sprague-Dawley rats were injected intraperitoneally with 50 mg/kg of streptozotocin (STZ) in sodium citrate buffer. 10% sucrose water was provided ad libitum for the first 48 hours post-STZ followed by regular drinking water. Rats were monitored once weekly for blood glucose levels and body weights. Development of tactile allodynia over time was analyzed using Von Frey filaments and a 50% withdrawal threshold was determined using Dixon's up-down procedure. […] Tactile allodynia was evaluated at 1, 4 and 6 hours post-dosing.

[3] = system: acute and chronic pain from chemical, mechanical, and thermal pain stimuli; details: animal studies; cited from earlier work
[4] = system: capsaicin-induced hyperalgesia and allodynia; details: topical administration, humans; cited from earlier work
CB1 = details: exogenous administration of a CB1 agonist; cited from earlier work
Chain of CB1 (P47746 whole entry): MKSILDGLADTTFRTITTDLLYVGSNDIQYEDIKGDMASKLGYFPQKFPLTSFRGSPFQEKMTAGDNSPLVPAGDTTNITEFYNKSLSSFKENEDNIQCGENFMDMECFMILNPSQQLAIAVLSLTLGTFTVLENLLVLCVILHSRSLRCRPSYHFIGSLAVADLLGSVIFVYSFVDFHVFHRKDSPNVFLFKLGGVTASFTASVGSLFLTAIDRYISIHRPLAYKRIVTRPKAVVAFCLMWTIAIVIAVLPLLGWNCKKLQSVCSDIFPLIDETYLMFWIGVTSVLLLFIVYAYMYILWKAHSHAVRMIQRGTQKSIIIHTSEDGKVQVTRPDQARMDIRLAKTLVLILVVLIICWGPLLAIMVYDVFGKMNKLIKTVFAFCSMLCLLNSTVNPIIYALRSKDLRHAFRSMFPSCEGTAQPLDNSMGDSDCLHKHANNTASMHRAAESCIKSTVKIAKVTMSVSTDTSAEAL

[5] = system: Monosodium iodoacetate-induced osteoarthritis rats; assay: Combination of Compound 699 and morphine in MIA-induced osteoarthritis pain, Von Frey test; type: in vivo, rat; details: Von Frey one hour post-dosing
[6] = Dynamic moisture-sorption (DMS) analysis; type: physicochemical
Method: A dynamic moisture-sorption (DMS) study was conducted using a dynamic moisture-sorption analyzer, VTI Corporation, SGA-100. The instrument was calibrated using polyvinyl pyrrolidone (PVP) and NaCl. Samples were prepared for DMS analysis by placing 5 mg to 20 mg of a sample in a tared sample holder. The sample was placed on the hang-down wire of the VTI balance. A drying step was run, typically at 40° C. and 0.5-1% RH for 1 h. The isotherm temperature is 25° C. Defined % RH holds typically ranged from 10% RH to 90% RH, with intervals of 10 to 20% RH. A % weight change smaller than 0.010% over 10 min, or up to 2 h, whichever occurred first, was required before continuing to the next % RH hold. The water content of the sample equilibrated as described above was determined at each % RH hold.

[7] = system: carrageenan, capsaicin, and formalin models of inflammatory pain in rodents; details: systemic delivery; cited from earlier work

T1 sequence (P34972 whole entry): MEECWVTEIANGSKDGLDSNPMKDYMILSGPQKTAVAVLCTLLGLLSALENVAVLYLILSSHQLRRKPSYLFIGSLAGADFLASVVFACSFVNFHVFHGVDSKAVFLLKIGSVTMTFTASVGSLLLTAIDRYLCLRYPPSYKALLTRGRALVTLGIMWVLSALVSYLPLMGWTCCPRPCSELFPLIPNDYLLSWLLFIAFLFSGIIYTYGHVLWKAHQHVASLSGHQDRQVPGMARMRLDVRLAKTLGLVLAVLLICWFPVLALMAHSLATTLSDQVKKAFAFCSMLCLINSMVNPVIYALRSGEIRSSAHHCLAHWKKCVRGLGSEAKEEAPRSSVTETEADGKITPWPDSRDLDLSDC

## O=C(N[C@H]1c2ccccc2C[C@H]1O)c1nn(-c2c[n+]([O-])ccn2)c2c1C[C@@H]1C[C@H]21 [Compound 921, (1aS,5aS)-2-(4-Oxy-pyrazin-2-yl)-1a,2,5,5a-tetrahydro-1H-2,3-diaza-cyclopropa[a]pentalene-4-carboxylic Acid ((1S,2R)-2-Hydroxy-indan-1-yl)-amide]
Human CB2 receptor
  EC50: 2.2 nM

## O=C(NC1(C(F)(F)F)CCC1)c1nn(-c2c[n+]([O-])ccn2)c2c1C[C@@H]1C[C@H]21 [Compound 765, (1aS,5aS)-2-(4-Oxy-pyrazin-2-yl)-1a,2,5,5a-tetrahydro-1H-2,3-diaza-cyclopropa[a]pentalene-4-carboxylic Acid (1-Trifluoromethyl-cyclobutyl)-amide]
Human CB2 receptor
  EC50: 1.1 nM

## COc1ccc(C(=O)c2c(C)n(CCN3CCOCC3)c3cc(I)ccc23)cc1 [AM630]
[1]; treatment with CB2-selective antagonist
  effect on the reversal of hypersensitivity by AM1241: inhibited

## O=C(NC1(C(F)(F)F)CCC1)c1nn(-c2cnccn2)c2c1C[C@@H]1C[C@H]21 [Compound 926, (1aS,5aS)-2-Pyrazin-2-yl-1a,2,5,5a-tetrahydro-1H-2,3-diaza-cyclopropa[a]pentalene-4-carboxylic Acid (1-Trifluoromethyl-cyclobutyl)-amide]
Human CB2 receptor
  EC50: 4.1 nM

## CC(C)(NC(=O)c1nn(-c2c[n+]([O-])ccn2)c2c1C[C@@H]1C[C@H]21)C(F)(F)F [Compound 919, (1aS,5aS)-2-(4-Oxy-pyrazin-2-yl)-1a,2,5,5a-tetrahydro-1H-2,3-diaza-cyclopropa[a]pentalene-4-carboxylic Acid (2,2,2-Trifluoro-1,1-dimethyl-ethyl)-amide]
[2]
  analgesic efficacy, tactile allodynia (50% withdrawal threshold): robust and sustained analgesic efficacy over 6 hours
Human CB2 receptor
  EC50: 2.8 nM

## Cc1c(C(=O)c2cccc3ccccc23)c2cccc3c2n1[C@H](CN1CCOCC1)CO3 [WIN 55212-2]
[3]
  effect against acute and chronic pain: effective against acute and chronic pain

## CCCCCCC(C)(C)c1cc(O)c2c(c1)OC(C)(C)[C@@H]1CC=C(CO)C[C@@H]21 [HU-210]
[4]
  effect on capsaicin-induced hyperalgesia and allodynia: attenuates capsaicin-induced hyperalgesia and allodynia

## CCCCC/C=C\C/C=C\C/C=C\C/C=C\CCCC(=O)NCCCl [arachidonyl-2-chloroethylamide]
CB1
  effect on pain: reduces pain

## CCCCCCC(C)(C)c1ccc([C@@H]2C[C@H](O)CC[C@H]2CCCO)c(O)c1 [CP55,940]
[3]
  effect against acute and chronic pain: effective against acute and chronic pain

## CN1CC[C@]23c4c5ccc(O)c4O[C@H]2[C@@H](O)C=C[C@H]3[C@H]1C5 [morphine, reference compound]
[5]; 1 mpk morphine intraperitoneally
  paw withdrawal threshold (PWT), individual values: 4.25 and 8.44 and 5.57 and 5.44 and 4.72 and 2.02

## COc1ccc2c(c1)c(CCN1CCOCC1)c(C)n2C(=O)c1cccc(Cl)c1Cl [GW405833]
[1]; administered systemically
  effect on hypersensitivity to mechanical stimuli: significantly reverses hypersensitivity to mechanical stimuli

## CC(C)(C)[C@@H](CO)NC(=O)c1nn(-c2c[n+]([O-])ccn2)c2c1C[C@@H]1C[C@H]21 [Compound 699 (Anhydrous Form), (1aS,5aS)-2-(4-Oxy-pyrazin-2-yl)-1a,2,5,5a-tetrahydro-1H-2,3-diaza-cyclopropa[a]pentalene-4-carboxylic Acid ((S)-1-Hydroxymethyl-2,2-dimethyl-propyl)-amide]
[6]; adsorption, sample RH 29.94 %, 25.32
  Weight (% Change): 0.151%
[6]; adsorption, sample RH 49.86 %, 25.31
  Weight (% Change): 0.282%
[6]; adsorption, sample RH 69.77 %, 25.3
  Weight (% Change): 0.482%
[6]; adsorption, sample RH 79.70 %, 25.29
  Weight (% Change): 0.581%
[6]; adsorption, sample RH 89.72 %, 25.3
  Weight (% Change): 0.762%
[6]; desorption, sample RH 10.06 %, 25.29
  Weight (% Change): 0.080%
[6]; desorption, sample RH 29.99 %, 25.29
  Weight (% Change): 0.181%
[6]; desorption, sample RH 50.07 %, 25.3
  Weight (% Change): 0.364%
[6]; desorption, sample RH 70.11 %, 25.30
  Weight (% Change): 0.526%
[6]; sample RH […], 25.46, elapsed 46.6 min (after drying)
  Weight (% Change): 0%

## CCCCCc1cc(O)c2c(c1)OC(C)(C)[C@@H]1CCC(C)=C[C@@H]21 [THC]
[3]
  effect against acute and chronic pain: effective against acute and chronic pain

## CN1CCCCC1Cn1cc(C(=O)c2cc([N+](=O)[O-])ccc2I)c2ccccc21 (stereo not drawn) [AM1241]
[7]
  effect on induced hyperalgesia: suppresses hyperalgesia
[1]; local (subcutaneous) or systemic administration
  effect on tactile and thermal hypersensitivity: reverses tactile and thermal hypersensitivity

## CCCCC/C=C\C/C=C\C/C=C\C/C=C\CCCC(=O)NCCO [anandamide]
[3]
  effect against acute and chronic pain: effective against acute and chronic pain

## CC(C)(C)[C@@H](CO)NC(=O)c1nn(-c2c[n+]([O-])ccn2)c2c1C[C@@H]1C[C@H]21 [Compound 699, (1aS,5aS)-2-(4-Oxy-pyrazin-2-yl)-1a,2,5,5a-tetrahydro-1H-2,3-diaza-cyclopropa[a]pentalene-4-carboxylic Acid ((S)-1-Hydroxymethyl-2,2-dimethyl-propyl)-amide]
[2]
  analgesic efficacy, tactile allodynia (50% withdrawal threshold): robust and sustained analgesic efficacy over 6 hours
[5]; 1 mpk Compound 699 orally
  paw withdrawal threshold (PWT), individual values: 6.66 and 5.56 and 11.69 and 5.54 and 7.80 and 3.58
[5]; 10 mpk Compound 699 orally (positive control)
  paw withdrawal threshold (PWT), individual values: 6.58 g and 7.8 g
[5]; 10 mpk Compound 699 orally (positive control), in g
  paw withdrawal threshold (PWT), individual values: 15.00 (3×) and 11.69

Source: US9492447B2, “Cannabinoid receptor modulators” (Arena Pharmaceuticals, Inc., priority 2011, dated 2016)
